Measurements from patent publication US10231954B2, “Neurodegenerative therapies” (LYTIX BIOPHARMA AS, priority 2014, dated 2019).
Like-named read-outs stand apart in the source and are kept apart here.

Tests used:
Type in all cases: biochemical
ERK5 = ERK5 (Homo sapiens, UniProt Q13164); assay: Kinase profiling ERK5; details: for remaining activity at 100 µM: read-out: residual kinase activity, ERK5
Text: (§1) Any value less that 25 is considered to be highly significant inhibition.

p38a MAPK = p38a MAPK (Homo sapiens, UniProt Q16539); assay: Kinase profiling p38a MAPK; details: for remaining activity at 100 µM: read-out: residual kinase activity, p38a MAPK
Text: as §1

MAPKAP-K3 = MAPKAP-K3 (Homo sapiens, UniProt Q16644); assay: Kinase profiling MAPKAP-K3; details: for remaining activity at 100 µM: read-out: residual kinase activity, MAPKAP-K3
Text: as §1

SmMLCK = SmMLCK (Homo sapiens, UniProt Q15746); assay: Kinase profiling SmMLCK; details: for remaining activity at 100 µM: read-out: residual kinase activity, SmMLCK
DAPK1 = DAPK1 (Homo sapiens, UniProt P53355); assay: Kinase profiling DAPK1; details: for remaining activity at 100 µM: read-out: residual kinase activity, DAPK1
Text: as §1

MARK3 = MARK3 (Homo sapiens, UniProt P27448); assay: Kinase profiling MARK3; details: for remaining activity at 100 µM: read-out: residual kinase activity, MARK3
Text: as §1

DYRK1A = DYRK1A (Homo sapiens, UniProt Q13627); assay: DYRK 1A assay (kinase profiling); details: for remaining activity at 100 µM: read-out: residual kinase activity, DYRK1A
Protocol: Assays are stopped by addition of 5 μl of 0.5 M (3%) orthophosphoric acid and then harvested onto P81 Unifilter plates with a wash buffer of 50 mM orthophosphoric acid.
as §1

HIPK3 = HIPK3 (Homo sapiens, UniProt Q9H422); assay: Kinase profiling HIPK3; details: for remaining activity at 100 µM: read-out: residual kinase activity, HIPK3
Text: as §1

MEKK1 = MEKK1 (Homo sapiens, UniProt Q13233); assay: Kinase profiling MEKK1; details: for remaining activity at 100 µM: read-out: residual kinase activity, MEKK1
Text: as §1

ULK1 = biological target: T1, ULK1 (Homo sapiens, UniProt O75385); assay: Kinase profiling ULK1; details: for remaining activity at 100 µM: read-out: residual kinase activity, ULK1
T1 sequence (O75385 1-1050): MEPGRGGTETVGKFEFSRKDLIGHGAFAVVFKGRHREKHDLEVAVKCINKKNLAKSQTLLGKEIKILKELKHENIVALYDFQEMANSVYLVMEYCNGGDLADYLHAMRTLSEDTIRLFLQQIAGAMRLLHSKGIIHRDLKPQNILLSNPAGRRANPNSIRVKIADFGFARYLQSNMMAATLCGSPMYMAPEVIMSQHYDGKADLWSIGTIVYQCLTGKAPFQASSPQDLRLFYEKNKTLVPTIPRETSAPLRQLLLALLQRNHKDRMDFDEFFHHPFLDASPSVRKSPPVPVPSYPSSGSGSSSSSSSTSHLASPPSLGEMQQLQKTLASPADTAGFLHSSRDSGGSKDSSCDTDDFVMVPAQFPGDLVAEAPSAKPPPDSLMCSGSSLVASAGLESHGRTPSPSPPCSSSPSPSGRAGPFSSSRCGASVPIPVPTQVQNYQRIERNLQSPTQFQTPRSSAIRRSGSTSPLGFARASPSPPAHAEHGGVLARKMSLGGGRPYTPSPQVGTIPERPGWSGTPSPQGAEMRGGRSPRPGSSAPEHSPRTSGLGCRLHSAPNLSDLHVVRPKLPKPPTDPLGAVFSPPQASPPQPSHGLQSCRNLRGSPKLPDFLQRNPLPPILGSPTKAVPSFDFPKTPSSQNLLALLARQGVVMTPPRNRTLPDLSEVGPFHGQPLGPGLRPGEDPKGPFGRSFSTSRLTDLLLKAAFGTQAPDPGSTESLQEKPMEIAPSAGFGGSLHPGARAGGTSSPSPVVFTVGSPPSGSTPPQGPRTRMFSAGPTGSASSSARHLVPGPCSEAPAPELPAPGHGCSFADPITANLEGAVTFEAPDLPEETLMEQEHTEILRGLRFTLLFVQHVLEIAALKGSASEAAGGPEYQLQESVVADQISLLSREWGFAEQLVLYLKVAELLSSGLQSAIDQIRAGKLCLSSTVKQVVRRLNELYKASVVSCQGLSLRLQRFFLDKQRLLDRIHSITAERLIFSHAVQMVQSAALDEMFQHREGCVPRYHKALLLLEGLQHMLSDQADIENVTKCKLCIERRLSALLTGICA
Text: as §1

Lck = Lck (Homo sapiens, UniProt P06239); assay: Kinase profiling Lck; details: for remaining activity at 100 µM: read-out: residual kinase activity, Lck
Text: as §1

ZAP70 = biological target: T2, ZAP70 (Homo sapiens, UniProt P43403); assay: Kinase profiling ZAP70; details: for remaining activity at 100 µM: read-out: residual kinase activity, ZAP70
T2 sequence (P43403 1-619): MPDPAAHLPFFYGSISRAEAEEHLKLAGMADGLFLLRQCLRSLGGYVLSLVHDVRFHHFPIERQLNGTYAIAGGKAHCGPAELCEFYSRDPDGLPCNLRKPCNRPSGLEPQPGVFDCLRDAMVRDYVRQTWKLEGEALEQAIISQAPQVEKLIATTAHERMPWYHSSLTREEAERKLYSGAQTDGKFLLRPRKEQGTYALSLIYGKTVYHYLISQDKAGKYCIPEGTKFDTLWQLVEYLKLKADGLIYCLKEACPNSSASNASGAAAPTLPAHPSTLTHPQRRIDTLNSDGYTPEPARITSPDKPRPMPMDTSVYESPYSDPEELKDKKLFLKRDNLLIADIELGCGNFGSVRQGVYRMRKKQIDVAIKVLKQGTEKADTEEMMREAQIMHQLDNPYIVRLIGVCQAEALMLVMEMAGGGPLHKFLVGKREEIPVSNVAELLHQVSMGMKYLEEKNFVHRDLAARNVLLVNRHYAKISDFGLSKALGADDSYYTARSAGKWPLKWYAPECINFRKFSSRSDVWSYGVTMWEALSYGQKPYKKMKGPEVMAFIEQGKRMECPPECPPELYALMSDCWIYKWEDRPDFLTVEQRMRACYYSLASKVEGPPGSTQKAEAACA
Text: as §1

TIE2 = TIE2 (Homo sapiens, UniProt Q02763); assay: Kinase profiling TIE2; details: for remaining activity at 100 µM: read-out: residual kinase activity, TIE2
Text: as §1

EPH-A4 = EPH-A4 (Homo sapiens, UniProt P54764); assay: Kinase profiling EPH-A4; details: for remaining activity at 100 µM: read-out: residual kinase activity, EPH-A4
Text: as §1

[1] = 100 micromolar inhibitor, 100 = no change
[2] = 100 micromolar inhibitor concentration, 100 is no change

Chain of DAPK1 (P53355 whole entry, species assumed): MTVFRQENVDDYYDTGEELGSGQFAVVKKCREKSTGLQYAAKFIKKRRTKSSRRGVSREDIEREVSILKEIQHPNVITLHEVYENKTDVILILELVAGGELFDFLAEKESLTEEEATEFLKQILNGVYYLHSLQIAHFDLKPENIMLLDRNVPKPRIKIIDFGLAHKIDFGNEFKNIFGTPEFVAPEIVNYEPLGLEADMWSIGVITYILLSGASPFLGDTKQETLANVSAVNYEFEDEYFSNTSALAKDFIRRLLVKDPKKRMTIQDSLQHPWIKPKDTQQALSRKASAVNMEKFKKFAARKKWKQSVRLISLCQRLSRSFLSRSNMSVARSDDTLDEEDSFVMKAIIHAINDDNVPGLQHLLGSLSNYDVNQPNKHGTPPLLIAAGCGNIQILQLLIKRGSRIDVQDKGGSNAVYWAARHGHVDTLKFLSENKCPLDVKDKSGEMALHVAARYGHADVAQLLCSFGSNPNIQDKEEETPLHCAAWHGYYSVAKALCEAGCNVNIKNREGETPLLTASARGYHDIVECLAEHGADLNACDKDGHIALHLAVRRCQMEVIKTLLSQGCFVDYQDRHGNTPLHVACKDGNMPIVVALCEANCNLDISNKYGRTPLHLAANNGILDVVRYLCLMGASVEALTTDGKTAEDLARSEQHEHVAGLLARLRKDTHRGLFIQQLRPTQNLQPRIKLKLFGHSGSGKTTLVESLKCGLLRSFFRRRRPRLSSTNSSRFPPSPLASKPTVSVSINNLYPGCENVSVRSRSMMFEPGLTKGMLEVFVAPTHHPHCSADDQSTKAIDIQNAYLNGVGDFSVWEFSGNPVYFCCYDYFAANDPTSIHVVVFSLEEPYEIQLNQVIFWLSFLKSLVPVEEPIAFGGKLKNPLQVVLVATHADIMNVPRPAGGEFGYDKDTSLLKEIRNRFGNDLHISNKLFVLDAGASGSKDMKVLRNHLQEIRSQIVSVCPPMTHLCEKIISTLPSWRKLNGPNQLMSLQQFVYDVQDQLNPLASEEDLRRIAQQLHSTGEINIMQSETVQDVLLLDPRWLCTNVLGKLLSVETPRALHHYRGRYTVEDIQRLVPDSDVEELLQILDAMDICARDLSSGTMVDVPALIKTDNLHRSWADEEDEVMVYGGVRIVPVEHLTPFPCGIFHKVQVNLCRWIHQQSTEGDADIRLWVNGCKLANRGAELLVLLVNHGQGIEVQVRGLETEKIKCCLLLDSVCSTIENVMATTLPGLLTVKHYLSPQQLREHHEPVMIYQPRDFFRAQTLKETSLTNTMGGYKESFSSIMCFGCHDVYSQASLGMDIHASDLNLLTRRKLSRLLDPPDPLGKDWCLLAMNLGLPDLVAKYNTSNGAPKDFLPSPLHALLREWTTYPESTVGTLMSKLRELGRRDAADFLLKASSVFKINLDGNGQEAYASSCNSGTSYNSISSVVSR
Chain of MARK3 (P27448 whole entry, species assumed): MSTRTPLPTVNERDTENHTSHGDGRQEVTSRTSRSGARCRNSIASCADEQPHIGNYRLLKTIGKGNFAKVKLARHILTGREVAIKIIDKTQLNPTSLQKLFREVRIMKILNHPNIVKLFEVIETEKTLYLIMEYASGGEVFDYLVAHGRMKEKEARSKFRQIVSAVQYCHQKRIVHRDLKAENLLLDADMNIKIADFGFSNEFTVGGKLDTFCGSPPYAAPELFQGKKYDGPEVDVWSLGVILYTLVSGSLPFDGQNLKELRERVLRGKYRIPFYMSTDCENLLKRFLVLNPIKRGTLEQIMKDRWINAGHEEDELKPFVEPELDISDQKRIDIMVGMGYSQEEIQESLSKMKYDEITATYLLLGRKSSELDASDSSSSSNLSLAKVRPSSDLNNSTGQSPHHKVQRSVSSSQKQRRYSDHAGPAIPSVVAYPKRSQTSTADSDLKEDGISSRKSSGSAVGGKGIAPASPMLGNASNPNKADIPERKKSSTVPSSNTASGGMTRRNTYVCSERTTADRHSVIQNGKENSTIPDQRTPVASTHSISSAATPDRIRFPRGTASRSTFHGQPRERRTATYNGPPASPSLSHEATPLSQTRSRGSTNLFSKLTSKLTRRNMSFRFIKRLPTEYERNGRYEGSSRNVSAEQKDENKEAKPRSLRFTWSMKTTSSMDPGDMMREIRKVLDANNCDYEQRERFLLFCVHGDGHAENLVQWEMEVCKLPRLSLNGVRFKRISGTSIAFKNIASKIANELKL
Chain of ERK5 (Q13164 whole entry, species assumed): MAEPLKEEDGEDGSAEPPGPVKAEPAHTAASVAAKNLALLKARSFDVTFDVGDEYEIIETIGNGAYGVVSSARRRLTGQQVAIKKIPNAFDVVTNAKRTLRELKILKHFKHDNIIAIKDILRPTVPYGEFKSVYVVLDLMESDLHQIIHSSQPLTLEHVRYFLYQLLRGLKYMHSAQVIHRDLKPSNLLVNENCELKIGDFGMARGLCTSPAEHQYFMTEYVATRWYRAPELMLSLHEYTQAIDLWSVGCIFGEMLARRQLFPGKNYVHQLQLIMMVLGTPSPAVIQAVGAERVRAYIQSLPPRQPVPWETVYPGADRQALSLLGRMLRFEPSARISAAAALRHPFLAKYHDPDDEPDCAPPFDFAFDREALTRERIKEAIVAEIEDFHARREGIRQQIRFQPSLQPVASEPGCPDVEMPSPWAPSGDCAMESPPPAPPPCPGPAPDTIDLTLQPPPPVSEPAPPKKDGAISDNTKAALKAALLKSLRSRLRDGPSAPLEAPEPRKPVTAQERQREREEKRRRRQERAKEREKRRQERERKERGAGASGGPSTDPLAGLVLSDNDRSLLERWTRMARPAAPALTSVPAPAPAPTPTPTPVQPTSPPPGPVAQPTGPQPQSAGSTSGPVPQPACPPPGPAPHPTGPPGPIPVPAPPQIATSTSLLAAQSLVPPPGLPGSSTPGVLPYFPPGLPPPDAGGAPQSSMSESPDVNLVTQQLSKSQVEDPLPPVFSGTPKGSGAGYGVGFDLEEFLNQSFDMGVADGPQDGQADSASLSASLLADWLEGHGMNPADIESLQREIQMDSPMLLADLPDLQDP
Chain of TIE2 (Q02763 23-1124, species assumed): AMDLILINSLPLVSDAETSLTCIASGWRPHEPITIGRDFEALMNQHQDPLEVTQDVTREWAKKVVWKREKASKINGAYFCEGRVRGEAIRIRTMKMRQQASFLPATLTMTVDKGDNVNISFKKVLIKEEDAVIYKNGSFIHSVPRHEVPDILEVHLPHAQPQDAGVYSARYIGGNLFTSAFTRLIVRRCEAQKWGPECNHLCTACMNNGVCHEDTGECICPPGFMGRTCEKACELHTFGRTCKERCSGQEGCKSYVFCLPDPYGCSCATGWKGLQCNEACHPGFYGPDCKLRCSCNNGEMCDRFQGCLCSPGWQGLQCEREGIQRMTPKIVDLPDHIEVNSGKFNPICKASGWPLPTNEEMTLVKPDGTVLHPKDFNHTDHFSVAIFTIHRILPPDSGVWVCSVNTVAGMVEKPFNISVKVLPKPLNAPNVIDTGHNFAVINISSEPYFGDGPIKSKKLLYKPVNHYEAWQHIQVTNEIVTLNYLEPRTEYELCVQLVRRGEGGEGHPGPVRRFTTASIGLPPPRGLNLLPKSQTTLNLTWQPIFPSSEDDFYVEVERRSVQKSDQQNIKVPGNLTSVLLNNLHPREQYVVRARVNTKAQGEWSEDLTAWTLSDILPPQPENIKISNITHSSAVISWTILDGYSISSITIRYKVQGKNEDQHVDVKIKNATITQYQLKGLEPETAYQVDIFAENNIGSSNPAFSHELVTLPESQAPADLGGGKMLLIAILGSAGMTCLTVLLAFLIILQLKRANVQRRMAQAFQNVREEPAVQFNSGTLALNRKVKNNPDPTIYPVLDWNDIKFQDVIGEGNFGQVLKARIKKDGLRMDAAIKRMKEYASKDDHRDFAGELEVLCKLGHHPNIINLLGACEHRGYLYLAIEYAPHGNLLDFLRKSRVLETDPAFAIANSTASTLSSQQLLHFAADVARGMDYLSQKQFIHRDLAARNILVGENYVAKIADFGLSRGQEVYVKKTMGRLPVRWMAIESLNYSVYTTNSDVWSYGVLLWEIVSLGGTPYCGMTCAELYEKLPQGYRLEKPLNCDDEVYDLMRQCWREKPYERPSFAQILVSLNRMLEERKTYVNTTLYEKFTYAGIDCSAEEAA
Chain of MAPKAP-K3 (Q16644 whole entry, species assumed): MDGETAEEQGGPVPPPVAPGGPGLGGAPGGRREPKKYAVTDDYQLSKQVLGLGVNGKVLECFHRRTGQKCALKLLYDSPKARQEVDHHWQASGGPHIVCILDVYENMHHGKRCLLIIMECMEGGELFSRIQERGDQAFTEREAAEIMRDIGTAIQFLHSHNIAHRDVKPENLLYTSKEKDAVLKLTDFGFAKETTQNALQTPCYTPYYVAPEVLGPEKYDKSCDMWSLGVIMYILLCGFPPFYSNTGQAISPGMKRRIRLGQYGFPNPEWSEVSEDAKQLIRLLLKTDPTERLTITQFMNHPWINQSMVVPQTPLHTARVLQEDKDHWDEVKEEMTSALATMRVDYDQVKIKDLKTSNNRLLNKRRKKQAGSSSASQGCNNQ
Chain of p38a MAPK (Q16539 whole entry): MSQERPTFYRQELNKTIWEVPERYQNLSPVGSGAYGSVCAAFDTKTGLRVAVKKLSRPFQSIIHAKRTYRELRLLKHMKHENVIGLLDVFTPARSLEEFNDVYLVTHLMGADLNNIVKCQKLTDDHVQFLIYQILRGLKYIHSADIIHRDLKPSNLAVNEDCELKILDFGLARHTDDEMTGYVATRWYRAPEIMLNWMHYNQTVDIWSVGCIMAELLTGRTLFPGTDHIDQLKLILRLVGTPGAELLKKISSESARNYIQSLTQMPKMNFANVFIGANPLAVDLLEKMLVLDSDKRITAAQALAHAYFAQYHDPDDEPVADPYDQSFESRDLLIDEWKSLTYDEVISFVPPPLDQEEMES

Structure (SMILES) | residual kinase activity, ERK5 (ERK5; [2]) | residual kinase activity, p38a MAPK (p38a MAPK; [2]) | residual kinase activity, MAPKAP-K3 (MAPKAP-K3; [2]) | residual kinase activity, SmMLCK (SmMLCK; [2]) | residual kinase activity, DAPK1 (DAPK1; [2]) | residual kinase activity, MARK3 (MARK3; [2]) | residual kinase activity, DYRK1A (DYRK1A; [2]) | residual kinase activity, HIPK3 (HIPK3; [2]) | residual kinase activity, MEKK1 (MEKK1; [2]) | residual kinase activity, ULK1 (ULK1; [2]) | residual kinase activity, Lck (Lck; [2]) | residual kinase activity, ZAP70 (ZAP70; [2]) | residual kinase activity, TIE2 (TIE2; [2]) | residual kinase activity, EPH-A4 (EPH-A4; [2]) | further results
CC(=O)Nc1cccc(NC(=O)c2nc3ccc(O)cc3s2)c1 [Compound 03-07, N-(3-acetamidophenyl)-6-hydroxybenzo[d]thiazole-2-carboxamide] |  |  |  |  |  |  |  |  |  |  |  |  |  |  | remaining activity at 100 µM (ERK5; [1]): 48%; remaining activity at 100 µM (p38a MAPK; [1]): 93%; remaining activity at 100 µM (MAPKAP-K3; [1]): 34%; remaining activity at 100 µM (SmMLCK; [1]): 21%; remaining activity at 100 µM (DAPK1; [1]): 28%; remaining activity at 100 µM (MARK3; [1]): 72%; remaining activity at 100 µM (DYRK1A; [1]): 30%; remaining activity at 100 µM (HIPK3; [1]): 81%; remaining activity at 100 µM (MEKK1; [1]): 115%; remaining activity at 100 µM (ULK1; [1]): 70%; remaining activity at 100 µM (Lck; [1]): 88%; remaining activity at 100 µM (ZAP70; [1]): 94%; remaining activity at 100 µM (TIE2; [1]): 78%; remaining activity at 100 µM (EPH-A4; [1]): 95%
O=C(Nc1nc2cc(O)ccc2s1)c1ccccn1 [Compound 03-13] | 51 | 96 | 62 | 37 | 58 | 68 | 25 | 82 | 114 | 78 | 77 | 105 | 106 | 89 | 
O=C(Nc1nc2ccc(O)cc2s1)c1ccccn1 [Compound 03-12] | 53 | 107 | 31 | 9 | 25 | 79 | 33 | 84 | 127 | 96 | 82 | 91 | 76 | 78 | 
O=C(Nc1nc2ccc(O)cc2s1)c1cccnc1 [Compound 08-44] | 43 | 108 | 38 | 19 | 26 | 65 | 8 | 45 | 107 | 78 | 82 | 79 | 81 | 89 | 
CC(=O)Nc1nc2cc(C(F)(F)F)ccc2s1 [Compound 03-73] |  |  |  |  |  |  |  |  |  |  |  |  |  |  | remaining activity at 100 µM (ERK5; [2]): 67%; remaining activity at 100 µM (p38a MAPK; [2]): 92%; remaining activity at 100 µM (MAPKAP-K3; [2]): 93%; remaining activity at 100 µM (SmMLCK; [2]): 71%; remaining activity at 100 µM (DAPK1; [2]): 93%; remaining activity at 100 µM (MARK3; [2]): 63%; remaining activity at 100 µM (DYRK1A; [2]): 22%; remaining activity at 100 µM (HIPK3; [2]): 106%; remaining activity at 100 µM (MEKK1; [2]): 111%; remaining activity at 100 µM (ULK1; [2]): 91%; remaining activity at 100 µM (Lck; [2]): 101%; remaining activity at 100 µM (ZAP70; [2]): 115%; remaining activity at 100 µM (TIE2; [2]): 92%; remaining activity at 100 µM (EPH-A4; [2]): 103%
CC(=O)Nc1nc2ccccc2s1 [Compound 03-32] | 66 | 91 | 61 | 81 | 89 | 85 | 43 | 78 | 93 | 102 | 91 | 111 | 112 | 111 | 
CC(=O)Nc1nc2cc(F)ccc2s1 [Compound 03-77] |  |  |  |  |  |  |  |  |  |  |  |  |  |  | remaining activity at 100 µM (ERK5; [2]): 38%; remaining activity at 100 µM (p38a MAPK; [2]): 88%; remaining activity at 100 µM (MAPKAP-K3; [2]): 107%; remaining activity at 100 µM (SmMLCK; [2]): 66%; remaining activity at 100 µM (DAPK1; [2]): 82%; remaining activity at 100 µM (MARK3; [2]): 58%; remaining activity at 100 µM (DYRK1A; [2]): 7%; remaining activity at 100 µM (HIPK3; [2]): 62%; remaining activity at 100 µM (MEKK1; [2]): 102%; remaining activity at 100 µM (ULK1; [2]): 83%; remaining activity at 100 µM (Lck; [2]): 96%; remaining activity at 100 µM (ZAP70; [2]): 109%; remaining activity at 100 µM (TIE2; [2]): 112%; remaining activity at 100 µM (EPH-A4; [2]): 100%
